Consider 64 compounds from ChEMBL document CHEMBL3988442, “University of Dundee, Small-Polar-MMV Screening Library” (2021).

Molecules are shown by their SMILES. Where “and” joins values, the source holds several entries; their conditions need not be identical. Equal values may be shown once.

In this assay the test system is Wolbachia pipientis. The assay can be described thus: Anti-Wolbachia Cell-Based Screen. In kind it is functional. Conditions: for IC50: Wolbachia pipientis.

Usually pIC50 stands for −log10 of the IC50, conventionally taken in molar units. A high value points to a low IC50. By IC50 is commonly meant the concentration at which inhibition is half-maximal. With `CCc1ccc(CN(C)Cc2nc(COc3ccccc3)no2)nc1`, the pIC50 amounted to 5.105 and the IC50 was 9.16 µM.

`Cn1nccc1C(=O)N1CCCC2(CCN(c3ccsc3)C2=O)C1` (stereo not drawn): the IC50 is over 10 µM. The compound `NC(=O)C1CCN(c2nc3nccc(-c4ccccn4)c3c(=O)[nH]2)CC1` gave an IC50 of over 10 µM.

In turn, `O=C(CC1CC1)NCc1cc(=O)n2c(n1)CN(Cc1ccoc1)CCC2` gave a half-maximal inhibitory concentration (IC50) of over 10 µM. `COc1ccc(C(C)N(C)Cc2c(C(C)C)[nH]c3ncccc23)cc1` (stereo not drawn) showed a half-maximal inhibitory concentration (IC50) of over 10 µM. In the case of `CC1(C(=O)N2CCN(c3ncccn3)CC2)CNCCO1` (stereo not drawn), the IC50 was over 10 µM. Same read-out and setting: the same measure for `CN(C)c1ncc(I)c(C2CCCCN2S(C)(=O)=O)n1` (stereo not drawn): over 10 µM. The same measure, in the same setting: with `CNC(=O)c1cn[nH]c1C1(C)CCCN(Cc2nccn2C(C)C)C1` (stereo not drawn) the figure was over 10 µM; with `Cc1csc(Nc2nccnc2C2CCCN2S(C)(=O)=O)n1` (stereo not drawn), over 10 µM; with `COCCCN1Cc2cccc(NC(=O)C(C)(C)C)c2C1`, over 10 µM. `CCOc1nnc(CN2CCN(CCOC)CC2)s1` had a concentration for half-maximal inhibition (IC50) of over 10 µM. Compound `CC(CNC1CCN(c2ccccn2)CC1)Oc1ccc(F)cc1` (stereo not drawn) had an IC50 of over 10 µM. With `CCOCCCC(=O)NCc1ccc(N2CCCCC2)cc1`, the IC50 was over 10 µM. Still for that read-out and setting: the same measure for `Cc1csc(CCCNC(=O)NC2CC(=O)N(C(C)(C)C)C2)n1` (stereo not drawn): over 10 µM. `CC(C)C(=O)Nc1ccc(C(O)Cn2nc(-c3cccs3)oc2=O)cc1` (stereo not drawn) showed a concentration for half-maximal inhibition (IC50) of over 10 µM. For the compound `O=c1oc(-c2cccs2)nn1CC(O)c1ccc2c(c1)CCC2` (stereo not drawn), the IC50 was over 10 µM. For the compound `CCc1sc(C(=O)NC2CC2)cc1C`, the IC50 is over 10 µM. `COc1ccc(Br)c(C(=O)NCC2CC2)c1` gave an IC50 of over 10 µM. Same read-out and setting: the same measure for `Cc1cc(NC(=O)c2ccccc2Br)n(C)n1`: over 10 µM.

On to `O=C(NCCN1CCOCC1)N(CCCO)C1CCCc2ccccc21` (stereo not drawn), for which the half-maximal inhibitory concentration (IC50) was over 10 µM. Same read-out and setting: with `COc1c(CNCC(O)COc2ccc3c(c2)OCO3)c(C)nn1C` (stereo not drawn) the figure was over 10 µM.

With `CC(C)Cn1ncc2cc(C(=O)N(C)CCc3ccccc3)cnc21`, the IC50 was over 10 µM. Compound `CC(C)Cn1ncc2cc(C(=O)N(C)Cc3cccc(O)c3)cnc21` had a half-inhibitory concentration (IC50) of over 10 µM. With `CC(C)N(C(=O)c1csc(-c2ccoc2)n1)C1CCOCC1`, the IC50 is over 10 µM. With `CC(c1ccco1)N(C(=O)c1cc2c([nH]c1=O)CCCC2=O)C1CC1` (stereo not drawn), the IC50 was over 10 µM. The same measure, in the same setting: with `COc1ccccc1OCCN(C)c1cc(C)nc(N)n1` the figure was over 10 µM; with `CCc1ccc(CN(C(=O)CCn2cc(S(N)(=O)=O)cn2)C2CC2)cc1`, over 10 µM. Still for that read-out and setting: with `NS(=O)(=O)c1cnn(CCC(=O)N(Cc2ccccc2)C2CC2)c1` the figure was over 10 µM. `CN(C)c1cc(CNCc2ccc(N3CCOCC3)cc2)ccn1` had an IC50 of over 10 µM.

Consider `N#Cc1cc(F)c(NCc2ccc(F)cc2)c(F)c1`, for which the half-maximal inhibitory concentration (IC50) is over 10 µM. `Cn1cc(CN2C[C@@H]3CCC[C@@H](OCc4cccnc4)[C@@H]3C2)cn1` had an IC50 of over 10 µM. `CCCNC(=O)c1ncn2c1CN(CC(C)C)S(=O)(=O)c1ccccc1-2` showed an IC50 of over 10 µM.

Take `CN(C)C(=O)[C@H]1C[C@@H]2CN(S(=O)(=O)Cc3ccccc3)C[C@H]1O2`: the IC50 was over 10 µM. Regarding `Cc1nn(C)c2nc(N(Cc3nccs3)C3CC3)sc12`, the negative logarithm of the IC50 (pIC50) was 5.592 and the IC50 is 2.9 µM.

The compound `Cc1ccc(C(=O)N2CCC3(CC2)CN(CCN(C)C)C(=O)O3)c(F)c1` showed a negative logarithm of the IC50 (pIC50) of 5.079 and an IC50 of over 10 µM. For `Cc1noc(-c2ccnc(Oc3ccc(CN4CCCC4)cc3C)c2)n1`, the pIC50 was 5.704 and 5.368. `Fc1ccc(N2CCCN(Cc3ccc(-c4cc[nH]n4)o3)CC2)cc1`: the pIC50 turned out to be 5.26 and the IC50 was 6.44 µM. In turn, `c1ccc(-c2nnc(N3CCCC4(CCOC4)C3)s2)cc1` (stereo not drawn) had a pIC50 of 5.105 and a concentration for half-maximal inhibition (IC50) of over 10 µM.

As for `Cc1nn(C)c2nc(N3CCCCC3c3cccnc3)sc12` (stereo not drawn), the pIC50 was 6.07 and the IC50 was 1.24 µM. Compound `CC(c1ccco1)N(C)Cc1cccc(C(=O)Nc2nccn2C)c1` (stereo not drawn) had a pIC50 of 5.538 and a half-maximal inhibitory concentration (IC50) of 3.77 µM. For `CC(C)Cc1cc(C(=O)NCC2CCCN(Cc3ccco3)C2)on1` (stereo not drawn) the same measures were 5.687 and 1.41 µM.

In the case of `CCN(CC)C(=O)c1ccc(Cl)c(NC(=O)c2cc[nH]n2)c1`, the pIC50 is on record as 5.355 and the IC50 is 3.96 µM. As to `Cc1nn(C)c2nc(N3CCCCC3c3ccc(F)cc3)sc12` (stereo not drawn), the pIC50 came out at 5.674 and it took 2.24 µM to reach half-maximal inhibition (IC50). The compound `CCC(Nc1nc(C)nc2onc(C)c12)c1nc(C)c(C)s1` (stereo not drawn) showed a negative logarithm of the IC50 (pIC50) of 5.592 and a half-inhibitory concentration (IC50) of 2.54 µM. The compound `Cc1ccc(CSc2nc(N)cc(NCCC(=O)N3CCCC3)n2)cc1` showed a pIC50 of 5.181 and an IC50 of 4.89 µM.

`Cc1n[nH]c(C)c1CCC(=O)N(C)Cc1cn[nH]c1-c1ccc(F)cc1` gave a pIC50 of 5.21 and an IC50 of 5.81 µM. In turn, `Cc1ccc(CSc2nc(N)cc(NCCS(=O)(=O)N(C)C)n2)cc1` showed a negative-log IC50 (pIC50) of 5.214 and an IC50 of 4.21 µM. For `CCc1nc(C)sc1CN1CCc2[nH]nc(-c3ccc(F)c(F)c3)c2C1` the same measures were 5.065 and 4.91 µM. As for `Cc1nn(C)c2nc(N3CCCCC3c3nccs3)sc12` (stereo not drawn), the pIC50 worked out at 7.075 and the IC50 was 0.156 µM. `Cc1cc(NCCCNc2cccnc2)n2nc(C)c(C)c2n1` had a pIC50 of 5.158 and a half-maximal inhibitory concentration (IC50) of over 10 µM. The matching figures for `Cc1nn(C)c2nc(N3CCCC3c3nccs3)sc12` (stereo not drawn): 5.818 and 1.82 µM. For `CCc1cc(N(C)Cc2nonc2C)nc(N(C)C)n1` the same measures were 5.613 and 1.92 µM. The matching figures for `Cc1c[nH]c(CN2CCOC(c3ccc(Cl)c(Cl)c3)C2)c(C)c1=O` (stereo not drawn): 5.368 and 3.83 µM. `CCc1cc(N(C)Cc2cc[nH]n2)n2nc(C)c(C)c2n1` had a negative-log IC50 (pIC50) of 5.579 and an IC50 of 4.79 µM. Consider `FC(F)(F)c1nc(NC2CCCCC2)c2ccccc2n1`, for which the pIC50 is 5.146 and 5.539. `Cc1cc2nc(C(C)C)cc(NCC(c3ccccn3)N(C)C)n2n1` (stereo not drawn) showed a pIC50 of 5.809 and a concentration for half-maximal inhibition (IC50) of 1.75 µM. `CCn1cc(NC(=O)c2cccc(CN3C[C@@H](C)O[C@@H](C)C3)c2)nn1` had a pIC50 of under 5 and an IC50 of 8.23 µM. `Cc1c[nH]c(CN2CCOC(c3ccc(Cl)cc3)C2)c(C)c1=O` (stereo not drawn) gave a negative logarithm of the IC50 (pIC50) of 5.539 and a half-inhibitory concentration (IC50) of 2.63 µM.

`CC(C)c1cc(CSCCC(=O)O)no1`: the pIC50 came to 5.282 and inhibition was half-maximal at 3.09 µM (IC50).

Regarding `CCOCCCn1c(NC(=O)c2cnc(C)cn2)nc2ccccc21`, the pIC50 stood at 5.233 and it took 5.75 µM to reach half-maximal inhibition (IC50). For the compound `Cc1nn(C)c(C)c1C1CCCN1Cc1nc2ccccc2o1` (stereo not drawn), the pIC50 is on record as 5.128 and the IC50 is over 10 µM. `c1cnn(CC2CCCN2c2ncnc3ccsc23)c1` (stereo not drawn) gave a pIC50 of 5.454 and an IC50 of 3.17 µM.

In turn, `CCOC(=O)c1sc2ccsc2c1CNC(=O)C(C)(C)C#N` gave a pIC50 of 5.24 and an IC50 of 6.09 µM. For the compound `Cc1nnc(N2CCCC3(CN(Cc4nccs4)CCO3)C2)o1` (stereo not drawn), the half-inhibitory concentration (IC50) was over 10 µM.
